Results on five molecules are retold here after patent US11000033B2, “Ketone or oxime compound, and herbicide” (NISSAN CHEMICAL CORPORATION, priority 2014, dated 2021).

Assay type in all cases: in vivo
In data set [1] the test system is rapeseed. The experiment in a line: Test Example 5: effect on crop by foliage application, plastic box (symbol g). The settings on record: 320 g/ha, 3 weeks after application. In a few lines:
(§1)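 Greenhouse test at 25° C. to 30° C. Seeds of crops and weeds were spot-sown in boxes of sterilized diluvial soil under roughly 1.5 cm soil cover, then grown for foliage treatment.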

The subject of another data set is Apera spica-venti. The data set can be described thus: Test Example 5: herbicidal effect by foliage application, plastic box (symbol L). Particulars: 320 g/ha, 3 weeks after application. In a few lines:
(§2)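 Leaf-applied emulsion, water-diluted to a preset herbicide dose, on two-week-old seedlings raised in a 25° C. to 30° C. greenhouse; injury rated at 3 weeks using earlier criteria.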

The subject of data set [2] is rapeseed. The experiment in a line: Test Example 4: effect on crop by soil treatment (symbol g). Particulars: application herbicide amount 320 g/ha. A digest of the protocol: (§3)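 Sterilized diluvial soil, spot sowing, ~1.5 cm soil cover; greenhouse 25–30° C.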
For the next data set, the system named is Scirpus juncoides. The experiment in a line: Test Example 1: herbicidal activity, application before weed generation in submerged conditions (symbol B). The settings on record: application herbicide amount 320 g/ha. In a few lines: (§4)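 In a flooded pot test with alluvial soil, the emulsion-formulated compound was diluted with water to a predetermined amount and applied to the floodwater immediately on the sowing day. Pots were held in a greenhouse at 25–30 °C for 3 weeks before each weed was rated.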

Another data set relates to Setaria viridis. The data set can be described thus: Test Example 5: herbicidal effect by foliage application, plastic box (symbol G). The settings on record: 320 g/ha, 3 weeks after application. A digest of the protocol:
as §2

The next data set relates to wheat. The data set can be described thus: Test Example 5: effect on crop by foliage application, plastic box (symbol e). Particulars: 320 g/ha, 3 weeks after application. A digest of the protocol: as §1
For another data set, the system named is Amaranthus retroflexus. The experiment in a line: Test Example 4: herbicidal effect by soil treatment (symbol N). The settings on record: application herbicide amount 320 g/ha. A digest of the protocol:
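Seeds were sown in sterilized diluvial soil, covered with about 1.5 cm of soil, and the soil surface was sprayed with a water-diluted emulsion of the compound at a predetermined rate. Plants grew in a greenhouse at 25° C. to 30° C.; effects were scored visually 3 weeks after application.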

The test system of a further data set is Galium spurium. The experiment in a line: Test Example 5: herbicidal effect by foliage application, plastic box (symbol Q). The settings on record: 320 g/ha, 3 weeks after application. In a few lines:
as §2

Another data set has as its system corn. The experiment in a line: Test Example 4: effect on crop by soil treatment (symbol c). Particulars: application herbicide amount 320 g/ha. In a few lines: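 Diluvial soil (sterilized) in boxes; seeds placed spot-wise alongside weed species; ~1.5 cm covering soil. Greenhouse, 25–30° C.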
For data set [3], the system named is beet. The data set can be described thus: Test Example 5: effect on crop by foliage application, plastic box (symbol f). The settings on record: 320 g/ha, 3 weeks after application. A digest of the protocol:
as §1

Another data set relates to Lolium multiflorum Lam. The data set can be described thus: Test Example 5: herbicidal effect by foliage application, plastic box (symbol K). The settings on record: 320 g/ha, 3 weeks after application. In a few lines:
as §2

Data set [4] has as its system beet. The data set can be described thus: Test Example 4: effect on crop by soil treatment (symbol f). The settings on record: application herbicide amount 320 g/ha. A digest of the protocol:
as §3

In the next data set the test system is Cyperus difformis. The data set can be described thus: Test Example 3: herbicidal effect by foliage application, Wagner pot (symbol E). The settings on record: application herbicide amount 320 g/ha, Table 24. In a few lines:
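Foliar spray of a water-diluted emulsion at a predetermined herbicide amount, applied to 14-day-old plants. Seedlings were raised in flooded alluvial soil (0.1–0.5 cm water) at 25–30 °C in a greenhouse. Injury was rated after 3 weeks against fixed criteria.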

Another data set has as its system Monochoria vaginalis. The experiment in a line: Test Example 1: herbicidal activity, application before weed generation in submerged conditions (symbol C). Particulars: application herbicide amount 320 g/ha. In a few lines:
as §4

Molecules are shown by their SMILES.

For the molecule `CON=C(C)CC1(C)CC(O)=C(c2c(C)cc(C)cc2C)C1=O` (mixture of isomers) [11-002], the “g: rapeseed, effect on crop grade” value in the data set on rapeseed [1] is 4 (Herbicidal ratio of 70% or higher and lower than 90%). The “L: Apera spica-venti, herbicidal effect grade” value (shortened to “L: Apera spica-venti”) with Apera spica-venti was 5 (Herbicidal ratio of 90% or more (almost completely withered)). The “Effect on crop grade, g: rapeseed” value in the data set with rapeseed [2] is 2 (Herbicidal ratio of 20% or higher and lower than 40%). For the same molecule, the “B (Scirpus juncoides) herbicidal effect grade” value with Scirpus juncoides was 0 (Herbicidal ratio of 5% or lower (almost no effect)). Further, the “G: Setaria viridis, herbicidal effect grade” value (“G: Setaria viridis” below) in the data set with Setaria viridis was 4 (Herbicidal ratio of 70% or higher and lower than 90%). For the same molecule, the “e: wheat, effect on crop grade” value with wheat was 2 (Herbicidal ratio of 20% or higher and lower than 40%). Further, the “Herbicidal effect grade, N: Amaranthus retroflexus” value with Amaranthus retroflexus was 0 (Herbicidal ratio of 5% or lower (almost no effect)). For the same molecule, the “Q: Galium spurium, herbicidal effect grade” value (“Q: Galium spurium” below) in the data set with Galium spurium was 0 (Herbicidal ratio of 5% or lower (almost no effect)). The “Effect on crop grade, c: corn” value with corn was 1 (Herbicidal ratio of 5% or higher and lower than 20%). Moreover, the “f: beet, effect on crop grade” value with beet [3] is 0 (Herbicidal ratio of 5% or lower (almost no effect)). In the data set with Lolium multiflorum Lam., the “K: Lolium multiflorum Lam., herbicidal effect grade” value is listed as 5 (Herbicidal ratio of 90% or more (almost completely withered)). For the same molecule, the “Effect on crop grade, f: beet” value in the data set with beet [4] is given as 0 (Herbicidal ratio of 5% or lower (almost no effect)). The “E herbicidal effect grade” value in the data set with Cyperus difformis is 4 (Herbicidal ratio of 70% or higher and lower than 90%). For the same molecule, the “C (Monochoria vaginalis) herbicidal effect grade” value with Monochoria vaginalis is given as 0 (Herbicidal ratio of 5% or lower (almost no effect)).

Turning to `CON=C(C)CC1C(O)=C(c2c(C)cc(C)cc2C)C(=O)C1C` (mixture of isomers) [12-002], the “g: rapeseed, effect on crop grade” value in the data set on rapeseed [1] is 5 (Herbicidal ratio of 90% or more (almost completely withered)). In the data set with Apera spica-venti, the “L: Apera spica-venti” value is on record as 5 (Herbicidal ratio of 90% or more (almost completely withered)). Besides, in the data set with rapeseed [2], the “Effect on crop grade, g: rapeseed” value is 1 (Herbicidal ratio of 5% or higher and lower than 20%). In the data set with Scirpus juncoides, the “B (Scirpus juncoides) herbicidal effect grade” value was 3 (Herbicidal ratio of 40% or higher and lower than 70%). Also, the “G: Setaria viridis” value in the data set with Setaria viridis is 5 (Herbicidal ratio of 90% or more (almost completely withered)). Further, the “e: wheat, effect on crop grade” value with wheat is 2 (Herbicidal ratio of 20% or higher and lower than 40%). Besides, the “Herbicidal effect grade, N: Amaranthus retroflexus” value in the data set with Amaranthus retroflexus was 0 (Herbicidal ratio of 5% or lower (almost no effect)). Besides, the “Q: Galium spurium” value in the data set with Galium spurium was 4 (Herbicidal ratio of 70% or higher and lower than 90%). The “Effect on crop grade, c: corn” value in the data set with corn is 3 (Herbicidal ratio of 40% or higher and lower than 70%). Also, in the data set on beet [3], the “f: beet, effect on crop grade” value was 3 (Herbicidal ratio of 40% or higher and lower than 70%). In addition, the “K: Lolium multiflorum Lam., herbicidal effect grade” value with Lolium multiflorum Lam. is recorded as 5 (Herbicidal ratio of 90% or more (almost completely withered)). In the data set on beet [4], the “Effect on crop grade, f: beet” value is on record as 0 (Herbicidal ratio of 5% or lower (almost no effect)). Further, the “E herbicidal effect grade” value in the data set with Cyperus difformis is on record as 5 (Herbicidal ratio of 90% or more (almost completely withered)). Moreover, in the data set with Monochoria vaginalis, the “C (Monochoria vaginalis) herbicidal effect grade” value was 2 (Herbicidal ratio of 20% or higher and lower than 40%).

As for `CCC(CC1CC(O)=C(c2c(C)cc(Br)cc2OC)C1=O)=NOC` (mixture of isomers) [13-001], the “g: rapeseed, effect on crop grade” value in the data set with rapeseed [1] was 4 (Herbicidal ratio of 70% or higher and lower than 90%); in the data set on rapeseed [2] it was 0 (Herbicidal ratio of 5% or lower (almost no effect)). In the data set with Apera spica-venti, the “L: Apera spica-venti” value is 5 (Herbicidal ratio of 90% or more (almost completely withered)). In the data set with Scirpus juncoides, the “B (Scirpus juncoides) herbicidal effect grade” value was 2 (Herbicidal ratio of 20% or higher and lower than 40%). For the same molecule, the “G: Setaria viridis” value with Setaria viridis is 5 (Herbicidal ratio of 90% or more (almost completely withered)). Further, the “e: wheat, effect on crop grade” value in the data set on wheat was 5 (Herbicidal ratio of 90% or more (almost completely withered)). The “N: Amaranthus retroflexus, herbicidal effect grade” value in the data set with Amaranthus retroflexus was 0 (Herbicidal ratio of 5% or lower (almost no effect)). Further, the “Q: Galium spurium” value in the data set with Galium spurium is 0 (Herbicidal ratio of 5% or lower (almost no effect)). Moreover, in the data set with corn, the “c: corn, effect on crop grade” value is recorded as 5 (Herbicidal ratio of 90% or more (almost completely withered)). Moreover, the “f: beet, effect on crop grade” value in the data set with beet [3] and in the data set with beet [4] was 0 (Herbicidal ratio of 5% or lower (almost no effect)) each time. Besides, the “K: Lolium multiflorum Lam., herbicidal effect grade” value with Lolium multiflorum Lam. is 5 (Herbicidal ratio of 90% or more (almost completely withered)). Also, the “E herbicidal effect grade” value in the data set with Cyperus difformis was 4 (Herbicidal ratio of 70% or higher and lower than 90%). Also, the “C (Monochoria vaginalis) herbicidal effect grade” value in the data set on Monochoria vaginalis was 0 (Herbicidal ratio of 5% or lower (almost no effect)).

`CON=C(CC1CC(O)=C(c2c(C)cc(C)cc2OC)C1=O)C1CC1` (mixture of isomers) [13-002]: the “g: rapeseed, effect on crop grade” value in the data set with rapeseed [1] is 4 (Herbicidal ratio of 70% or higher and lower than 90%); in the data set on rapeseed [2] it was 1 (Herbicidal ratio of 5% or higher and lower than 20%). For the same molecule, the “L: Apera spica-venti” value in the data set with Apera spica-venti is listed as 5 (Herbicidal ratio of 90% or more (almost completely withered)). Besides, the “B (Scirpus juncoides) herbicidal effect grade” value in the data set with Scirpus juncoides is 4 (Herbicidal ratio of 70% or higher and lower than 90%). For the same molecule, the “G: Setaria viridis” value with Setaria viridis is 5 (Herbicidal ratio of 90% or more (almost completely withered)). In addition, the “e: wheat, effect on crop grade” value in the data set with wheat is reported as 5 (Herbicidal ratio of 90% or more (almost completely withered)). Further, the “N: Amaranthus retroflexus, herbicidal effect grade” value with Amaranthus retroflexus was 0 (Herbicidal ratio of 5% or lower (almost no effect)). Moreover, the “Q: Galium spurium” value in the data set on Galium spurium was 4 (Herbicidal ratio of 70% or higher and lower than 90%). Besides, the “c: corn, effect on crop grade” value with corn was 5 (Herbicidal ratio of 90% or more (almost completely withered)). The “f: beet, effect on crop grade” value in the data set on beet [3] was 3 (Herbicidal ratio of 40% or higher and lower than 70%); with beet [4] it was 0 (Herbicidal ratio of 5% or lower (almost no effect)). The “K: Lolium multiflorum Lam., herbicidal effect grade” value in the data set on Lolium multiflorum Lam. is given as 5 (Herbicidal ratio of 90% or more (almost completely withered)). Moreover, the “E herbicidal effect grade” value in the data set on Cyperus difformis is listed as 5 (Herbicidal ratio of 90% or more (almost completely withered)). Also, in the data set on Monochoria vaginalis, the “C (Monochoria vaginalis) herbicidal effect grade” value is reported as 0 (Herbicidal ratio of 5% or lower (almost no effect)).

For `CCC(CC1CC(O)=C(c2c(C)cc(C)cc2OC)C1=O)=NOC` (mixture of isomers) [13-003], the “g: rapeseed, effect on crop grade” value in the data set on rapeseed [1] was 4 (Herbicidal ratio of 70% or higher and lower than 90%); in the data set on rapeseed [2], 3 (Herbicidal ratio of 40% or higher and lower than 70%). Also, the “L: Apera spica-venti” value in the data set on Apera spica-venti is 5 (Herbicidal ratio of 90% or more (almost completely withered)). Further, the “B (Scirpus juncoides) herbicidal effect grade” value in the data set with Scirpus juncoides is reported as 5 (Herbicidal ratio of 90% or more (almost completely withered)). In the data set on Setaria viridis, the “G: Setaria viridis” value is reported as 5 (Herbicidal ratio of 90% or more (almost completely withered)). In addition, in the data set with wheat, the “e: wheat, effect on crop grade” value is 5 (Herbicidal ratio of 90% or more (almost completely withered)). In the data set on Amaranthus retroflexus, the “N: Amaranthus retroflexus, herbicidal effect grade” value is 0 (Herbicidal ratio of 5% or lower (almost no effect)). For the same molecule, the “Q: Galium spurium” value in the data set on Galium spurium is 3 (Herbicidal ratio of 40% or higher and lower than 70%). For the same molecule, the “c: corn, effect on crop grade” value in the data set on corn is listed as 5 (Herbicidal ratio of 90% or more (almost completely withered)). For the same molecule, the “f: beet, effect on crop grade” value in the data set on beet [3] and with beet [4] was 0 (Herbicidal ratio of 5% or lower (almost no effect)) in each case. Also, the “K: Lolium multiflorum Lam., herbicidal effect grade” value with Lolium multiflorum Lam. was 5 (Herbicidal ratio of 90% or more (almost completely withered)). For the same molecule, in the data set with Cyperus difformis, the “E herbicidal effect grade” value is 5 (Herbicidal ratio of 90% or more (almost completely withered)). The “C (Monochoria vaginalis) herbicidal effect grade” value with Monochoria vaginalis is 0 (Herbicidal ratio of 5% or lower (almost no effect)).
